# Read-outs that look alike come from different tables or passages of the source.
# Legend:
# [1] = Solubility of the active (fluralaner) in formulation solvents; type: physicochemical; conditions: organic solvent or mixture
# [2] = Blood plasma pharmacokinetic profile of isoxazoline compounds in two chewable formulations after a single oral administration in dogs (Example 8); type: in vivo; conditions: beagle dogs; for Cmax / Tmax / AUC(0-t): dog, plasma; for AUC(0-t): read-out: AUC(0-168h)
# Excerpt: Pharmacokinetic Profile Following Oral Administration of Chewable Formulations of Isoxazoline Compounds
# The objective of this study is to compare the blood plasma pharmacokinetic profile of three different isoxazoline compounds in two different chewable formulations after a single oral (PO) administration of in dogs.
# The following compounds were formulated according to the invention. Specifically, the isoxazoline compound was first dissolved in a solvent, i.e. 2-pyrrolidone. This drug solution was then adsorbed onto the solid carrier, i.e. microcrystalline cellulose, which was incorporated into a solid oral dosage form as described in the specification with excipients as described in Table 3. Comparative example formulation ID No. 13-009, 13-011 and 13-013 contain the active drug substance incorporated as a solid that was manufactured as described in general in the specification without prior pre-dissolving the active ingredient and adsorption to the solid carrier.
# The test compounds were administered orally to four beagle dogs per dose group for a total of twenty-four dogs.
# Each animal was administered the tablet or chew by placing it in the back of the oral cavity over the tongue to initiate swallowing.
# Plasma was obtained from the collected blood samples and analyzed for concentrations of the test compounds. Individual blood samples (approximately 4.5 mL per sample) were taken via jugular venipuncture into sodium-citrate tubes from all dogs for drug analysis. Blood samples were collected at the following time points: pretreatment (within 2 h prior to dosing) and approximately 1, 2, 4, 6, 8, 24, 48, 72 hours after dosing (15 min). A final blood sample was taken from each dog on Day 7 (2 h after the time of dosing on Day 0).
# Pharmacokinetic analysis was performed on the plasma concentration data with the computer program Pharsight WinNonlin Enterprise, Version 4.0.1, or more recent update (Model 200: plasma data, extravascular input).
# [3] = single oral dose 10 mg/kg, Alternate Chew (compound dissolved in 2-pyrrolidone)
# [4] = single oral dose 25 mg/kg, Control Chew (compound not dissolved)
Structure (SMILES),"solubility ([1]; 2-pyrrolidone (2-pyrol), solvent 2-pyrrolidone, read-out: solubility in 2-pyrrolidone (2-pyrol)) [mg/mL]","solubility ([1]; dimethylacetamide (DMAC), solvent DMAC, read-out: solubility in dimethylacetamide (DMAC)) [mg/mL]","Cmax/Dose [2, 3] [kg·ng/mL/mg]","Cmax/Dose [2, 4] [kg·ng/mL/mg]","Cmax [2, 3] [ng/mL]","Cmax [2, 4] [ng/mL]","AUC(0-168h)/Dose [2, 3] [kg·ng·h/mL/mg]","AUC(0-168h)/Dose [2, 4] [kg·ng·h/mL/mg]","Tmax [2, 3] [h]","AUC(0-t) [2, 3] [µg·h/mL]","Tmax [2, 4] [h]","AUC(0-t) [2, 4] [µg·h/mL]"
"Cc1cc(C2=NOC(c3cc(Cl)cc(Cl)c3)(C(F)(F)F)C2)ccc1C(=O)NCC(=O)NCC(F)(F)F (centres unmarked) [Compound A-1443, 4-[5-(3,5-Dichlorophenyl)-5-trifluoromethyl-4,5-dihydroisoxazol-3-yl]-2-methyl-N-[(2,2,2-trifluoro-ethylcarbamoyl)-methyl]-benzamide]",775,792,–,–,–,–,–,–,–,–,–,–
Cc1cc(C2=NOC(c3cc(Cl)cc(Cl)c3)(C(F)(F)F)C2)ccc1C(=O)NC1CSC1 (centres unmarked) [Compound A],–,–,1.71,0.768,17.1,19.2,–,–,–,–,–,–
O=C(CNC(=O)c1ccc(C2=NOC(c3cc(Cl)cc(C(F)(F)F)c3)(C(F)(F)F)C2)c2ccccc12)NCC(F)(F)F (centres unmarked) [Compound B],–,–,321,174,3210,4340,33416,16661,15.5,334,5,417
Cc1cc(C2=NOC(c3cc(Cl)cc(Cl)c3)(C(F)(F)F)C2)sc1C(=O)NCC(=O)NCC(F)(F)F (centres unmarked) [Compound C],–,–,254,63.5,2540,1590,32660,6573,15.5,327,27.5,164
